In the NIST ThermoML archive (doi:10.1021/je700599z):
Numbers after ± are expanded uncertainties.

Conditions: DTA

Glass transition temperature: -62.0 ± 3 °C
SMILES: CCn1cc[n+](C)c1.NCC(=O)[O-] [1-ethyl-3-methylimidazolium ammonioacetate]
